Legend:
S6K1 = S6K1 (Homo sapiens (Human), UniProt P23443); test: Inhibitory effects on S6K1 kinase activity (QSS Assist FP assay kit); assay type: biochemical; conditions: S6K1, ATP 25 μM; read-out: S6K inhibitory activity IC50
Protocol: Inhibitory activity of the compound according to the present invention on S6K1 kinase activity in vitro was assayed using the QSS Assist™ FP assay kit (Carna Biosciences, Inc.).
In the inhibition assay for inhibitory activity of the compound, the test compound was diluted by serial dilution with dimethyl sulfoxide (DMSO). Subsequently, an S6K protein, a substrate peptide (final concentration: 100 nM), magnesium chloride (final concentration: 5 mM), ATP (final concentration: 25 μM), and the solution of the test compound in DMSO (final DMSO concentration: 5%) were added to the kinase reaction buffer (20 mM HEPES (pH 7.4), 2 mM dithiothreitol, 0.01% Tween-20), and the mixture was incubated at 25° C. for 30 minutes to perform the kinase reaction. The IMAP Progressive Binding Reagent diluted to 400-fold with the IMAP Progressive Binding Buffer A (Molecular Devices, LLC) was added thereto to terminate the kinase reaction. The reaction product was allowed to stand at room temperature in the dark for 120 minutes and assayed with the use of PHERAstar (BMG LABTECH; excitation wavelength: 485 nm; detection wavelength: 520 nm). The level of phosphorylation reaction was determined based on the degree of fluorescence polarization, and the concentration of the compound at which phosphorylation could be inhibited by 50% was defined as the IC50 level (nM) and shown in Table 4.

[1] = test system: RKO cells (human colon cancer cell lines); test: Cell growth inhibition study using RKO cells (CellTiter-Glo); assay type: cell-based; conditions: 72 h, 3 days
Protocol: The in vitro cell growth inhibition study using RKO cells (human colon cancer cell lines) was conducted as described below.
RKO cells (ATCC, Cat#: CRL-2577) cultured in a MEM medium (GIBCO, Cat#:10370-088) supplemented with 10% FBS, 1 mM L-glutamine (GIBCO, Cat#:25030), and 1 mM sodium pyruvate (GIBCO, Cat#:11360) were seeded in a 96-well flat bottom microplate (COSTAR, Cat#:3904) at 2×10^3 cells (150 μl) and cultured in an incubator containing 5% CO2 at 37° C. for 1 day. The compound according to the present invention subjected to serial dilution with dimethyl sulfoxide or dimethyl sulfoxide alone was added to a MEM medium containing 10% FBS, 1 mM L-glutamine, and 1 mM sodium pyruvate. The resultant medium containing the compound or dimethyl sulfoxide alone was added to the RKO cells in the culture plate by 50 μl/well at the final concentration of the compound to 10, 3, 1, 0.3, 0.1, 0.03, 0.01, 0.003, and 0 μM, respectively. Another RKO cell culture plate separately prepared was allowed to stand at room temperature for 30 minutes, then 100 μl of the medium was removed, and added 50 μl of CellTiter-Glo® 2.0 Assay (Promega, Cat#:G9242) to each well. After the plates were placed in the dark for 10 minutes, the luminescence level derived from viable cells in each well was measured by the Multimode Plate Reader (PerkinElmer, EnSpire). The cells treated with the compound or dimethyl sulfoxide alone were cultured at 37° C. in an incubator containing 5% CO2 for an additional 3 days. After incubation, the culture plate was placed at room temperature for 30 minutes, and 150 μl of the supernatant was removed from each well to adjust the amount of the remaining cell culture solution to 50 μl each. To 50 μl of the remaining cell culture solution, the equivalent amount of CellTiter-Glo® 2.0 Assay was added. After the cell culture plate was placed in the dark for 10 minutes, the luminescence level derived from viable cells in each well was assayed with the use of the Multimode Plate Reader. The cell growth rate was calculated by the formulae shown below and the concentration at which the cell growth rate became 50%; i.e., the concentration of the compound according to the present invention at which cell growth would be inhibited by 50% was determined (GI50 (nM)). Cell growth rate (%)=(T−C0)/(C−C0)×100, provided that T is equal to or greater than C0(T≥C0) Cell growth rate (%)=(T−C0)/C0×100, provided that T is less than C0(T<C0) C0: Luminescence level in each well when the compound is added (count per second) C: Luminescence level in each well when dimethyl sulfoxide is added alone (count per second) T: Luminescence level in each well when the test compound is added (count per second)
As control compounds, conventional Comparative Example A (WO 2010/056563 (Example 31)) and Comparative Example B having inhibitory activity against Akt were used.
The GI50 levels of representative compounds according to the present invention and reference compounds in RKO cells were evaluated, and the results are shown in Table 5.

Rsk1 = Rsk1 (Homo sapiens (Human), UniProt Q15418); test: Inhibitory effects on Rsk1 kinase activity (QSS Assist FP assay kit); assay type: biochemical; conditions: Rsk1, ATP 30 μM; read-out: Rsk inhibitory activity IC50
Sequence of Rsk1 (Q15418 whole entry): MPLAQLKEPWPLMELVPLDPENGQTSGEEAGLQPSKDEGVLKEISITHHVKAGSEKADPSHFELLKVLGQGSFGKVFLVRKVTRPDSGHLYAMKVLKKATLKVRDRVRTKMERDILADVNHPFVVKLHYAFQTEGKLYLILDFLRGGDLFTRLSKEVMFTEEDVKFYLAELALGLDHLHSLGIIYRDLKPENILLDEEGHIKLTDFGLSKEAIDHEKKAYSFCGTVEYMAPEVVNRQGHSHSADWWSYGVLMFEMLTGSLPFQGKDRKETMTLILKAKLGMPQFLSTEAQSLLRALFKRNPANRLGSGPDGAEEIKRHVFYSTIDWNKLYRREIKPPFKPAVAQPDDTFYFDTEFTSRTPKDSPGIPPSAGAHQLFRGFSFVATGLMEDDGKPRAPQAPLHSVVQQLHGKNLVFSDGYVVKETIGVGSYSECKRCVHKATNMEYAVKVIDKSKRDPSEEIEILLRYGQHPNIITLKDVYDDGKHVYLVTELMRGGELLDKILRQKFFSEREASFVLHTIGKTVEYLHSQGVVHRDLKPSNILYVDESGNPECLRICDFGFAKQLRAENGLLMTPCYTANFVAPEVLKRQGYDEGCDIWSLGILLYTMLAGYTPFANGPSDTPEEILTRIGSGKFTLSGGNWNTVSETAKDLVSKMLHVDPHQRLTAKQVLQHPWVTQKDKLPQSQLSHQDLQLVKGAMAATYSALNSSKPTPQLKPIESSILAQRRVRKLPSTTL
Protocol: Inhibitory activity of the compound according to the present invention on Rsk1 kinase activity in vitro was assayed using the QSS Assist™ FP assay kit (Carna Biosciences, Inc.).
In the inhibition assay of inhibitory activity of the compound, the test compound was diluted by serial dilution with dimethyl sulfoxide (DMSO). Subsequently, an Rsk1 protein, a substrate peptide (final concentration: 100 nM), magnesium chloride (final concentration: 10 mM), ATP (final concentration: 30 μM), and the solution of the test compound in DMSO (DMSO final concentration: 5%) were added to the kinase reaction buffer (20 mM HEPES (pH 7.4), 2 mM dithiothreitol, 0.01% Tween-20), and the mixture was incubated at 25° C. for 40 minutes to perform the kinase reaction. The IMAP Progressive Binding Reagent diluted to 400-fold with the IMAP Progressive Binding Buffer A (Molecular Devices, LLC) was added to terminate the kinase reaction.

human Akt1 = human Akt1 (Homo sapiens (Human), UniProt P31749); test: Inhibitory effects on Akt1 kinase activity (TR-FRET, biotinylated Crosstide); assay type: biochemical; conditions: Akt1, ATP 150 μM, pre-incubation 120 minutes at 25° C.; read-out: AKT inhibitory activity IC50
Sequence of human Akt1 (P31749 whole entry): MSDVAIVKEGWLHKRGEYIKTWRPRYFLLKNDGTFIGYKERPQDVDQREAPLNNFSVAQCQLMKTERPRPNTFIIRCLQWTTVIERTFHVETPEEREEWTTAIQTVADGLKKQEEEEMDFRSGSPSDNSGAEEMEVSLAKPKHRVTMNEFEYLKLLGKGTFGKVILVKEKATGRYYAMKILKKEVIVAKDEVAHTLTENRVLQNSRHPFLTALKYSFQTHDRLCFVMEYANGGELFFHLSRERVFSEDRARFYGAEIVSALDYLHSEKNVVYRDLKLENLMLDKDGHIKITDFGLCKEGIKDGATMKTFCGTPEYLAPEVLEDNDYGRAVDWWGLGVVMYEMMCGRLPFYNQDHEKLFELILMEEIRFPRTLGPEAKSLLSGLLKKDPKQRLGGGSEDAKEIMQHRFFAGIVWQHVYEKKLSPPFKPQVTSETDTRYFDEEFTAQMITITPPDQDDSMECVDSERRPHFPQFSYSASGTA
Protocol: Akt1 was prepared and assays of inhibitory activity of the compound according to the present invention against Akt1 kinase activity in vitro were conducted according to the method described in Biochem. J., vol. 385, pp. 399-408, 2005 and Cancer Res., vol. 68, pp. 2366-2374, 2008. In the preparation of Akt1 protein, human Akt1 tagged with the middle T antigen was expressed in an insect cell Sf9, Akt1 was prepared through affinity purification and activation by PDK1, and the resultant was stored at −80° C. until the inhibition assays of the compounds. In the inhibition assay of the compounds, Akt1 and the compound according to the present invention were subjected to pre-incubation at 25° C. for 120 minutes in a reaction buffer (15 mM Tris-HCl, pH 7.5, 0.01% Tween-20, 2 mM DTT). Subsequently, biotinylated Crosstide (biotin-[…], Millipore), MgCl2, and ATP were added as substrates at the final concentration of 500 nM, 10 mM, and 150 μM, respectively, and the reaction was allowed to proceed at 25° C. for 60 minutes. EDTA was added to the final concentration of 40 mM to terminate the reaction, a detection liquid containing the Eu-anti-phospho-Crosstide antibody (PerkinElmer) and SureLight APC-SA (PerkinElmer) at the final concentration of 0.5 nM and 62.5 nM, respectively was added, and the reaction was allowed to proceed at room temperature for 2 hours. In the end, the fluorescence levels irradiated with an excitation light of 337 nm were assayed at two different wavelength levels (i.e., 620 nm and 665 nm) using PI-HERAstar FS (BMG LABTECH) or PHERAstar (BMG LABTECH). The level of the phosphorylation reaction was determined on the basis of the ratio of fluorescence levels at two wavelength levels, and the concentration of the compound at which phosphorylation could be inhibited by 50% was defined as the IC50 level (nM) and shown in Table 2.
As reference compounds, conventional Comparative Example A (WO 2010/056563 (Example 31)) and Comparative Example B having inhibitory activity against Akt were used.

Sequence of S6K1 (P23443 whole entry): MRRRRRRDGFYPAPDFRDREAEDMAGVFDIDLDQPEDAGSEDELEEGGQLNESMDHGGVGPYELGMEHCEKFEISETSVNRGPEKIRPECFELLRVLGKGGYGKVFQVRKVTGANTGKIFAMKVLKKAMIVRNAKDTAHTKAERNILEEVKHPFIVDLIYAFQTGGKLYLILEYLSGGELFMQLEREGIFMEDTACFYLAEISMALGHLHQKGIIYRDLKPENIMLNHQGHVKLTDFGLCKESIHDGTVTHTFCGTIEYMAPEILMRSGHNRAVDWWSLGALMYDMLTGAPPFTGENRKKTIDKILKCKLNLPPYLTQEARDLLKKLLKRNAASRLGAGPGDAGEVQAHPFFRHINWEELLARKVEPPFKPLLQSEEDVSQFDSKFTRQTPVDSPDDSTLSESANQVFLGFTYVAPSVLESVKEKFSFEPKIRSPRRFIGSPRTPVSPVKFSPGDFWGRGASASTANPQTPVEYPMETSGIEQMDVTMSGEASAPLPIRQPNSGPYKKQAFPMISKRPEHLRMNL

Row | IC50 (S6K1) [nM] | GI50 [1] [nM] | IC50 (Rsk1) [nM] | IC50 (human Akt1) [nM] | SMILES
1 | 0.4 | 136 | 1.5 | 6.8 | CC(C)(C)NCCNc1ccc(-c2cncc(F)c2)nc1C1CCN(c2ncnc3c2C(C)(C)C(=O)N3)CC1 [Compound 1, 4-(4-(5-((2-(Tert-butylamino)ethyl)amino)-5′-fluoro-[2,3′-bipyridin]-6-yl)piperidin-1-yl)-5,5-dimethyl-5H-pyrrolo[2,3-d]pyrimidin-6(7H)-one]
2 | 0.4 | 111 | 1.4 | 1.4 | CC1C(=O)Nc2ncnc(N3CCC(c4nc(-c5ccnc(F)c5)ccc4NCCN4CCCC4)CC3)c21 (stereo not shown) [Compound 13, 4-(4-(2′-Fluoro-5-((2-(pyrrolidin-1-yl)ethyl)amino)-[2,4′-bipyridin]-6-yl)piperidin-1-yl)-5-methyl-5H-pyrrolo[2,3-d]pyrimidin-6(7H)-one]
3 | 0.9 | 118 | 1.7 | 0.5 | CC1C(=O)Nc2ncnc(N3CCC(c4nc(-c5ccoc5)ccc4NCCN4CCCC4)CC3)c21 (stereo not shown) [Compound 14, 4-(4-(6-(Furan-3-yl)-3-((2-(pyrrolidin-1-yl)ethyl)amino)pyridin-2-yl)piperidin-1-yl)-5-methyl-5H-pyrrolo[2,3-d]pyrimidin-6(7H)-one]
4 | 0.7 | 122 | 1.1 | 2.1 | COc1cncc(-c2ccc(NCCNC(C)C)c(C3CCN(c4ncnc5c4C(C)C(=O)N5)CC3)n2)c1 (stereo not shown) [Compound 15, 4-(4-(5-((2-(Isopropylamino)ethyl)amino)-5′-methoxy-[2,3′-bipyridin]-6-yl)piperidin-1-yl)-5-methyl-5H-pyrrolo[2,3-d]pyrimidin-6(7H)-one]
5 | 0.6 | 130 | – | 1.9 | CC1C(=O)Nc2ncnc(N3CCC(c4nc(-c5nccs5)ccc4NCCN4CCCC4)CC3)c21 (stereo not shown) [Compound 24, 5-Methyl-4-(4-(3-((2-(pyrrolidin-1-yl)ethyl)amino)-6-(thiazol-2-yl)pyridin-2-yl)piperidin-1-yl)-5H-pyrrolo[2,3-d]pyrimidin-6(7H)-one]
6 | 0.6 | 124 | – | – | CC1C(=O)Nc2ncnc(N3CC=C(c4nc(-c5cncc(F)c5)ccc4NCCN4CCCC4)CC3)c21 (stereo not shown) [Compound 26, 4-(5-Fluoro-5′-((2-(pyrrolidin-1-yl)ethyl)amino)-5″,6″-dihydro-[3,2′:6′,4″-terpyridine-]-1″(2″H)-yl)-5-methyl-5H-pyrrolo[2,3-d]pyrimidin-6(7H)-one]
7 | – | 48 | 1.8 | 1.6 | CC1C(=O)Nc2ncnc(N3CCC(c4cc(-c5cc(C(F)(F)F)nn5C)cnc4NCCN4CCCC4)CC3)c21 (stereo not shown) [Compound 27, 5-Methyl-4-(4-(5-(1-methyl-3-(trifluoromethyl)-1H-pyrazol-5-yl)-2-((2-(pyrrolidin-1-yl)ethyl)amino)pyridin-3-yl)piperidin-1-yl)-5H-pyrrolo[2,3-d]pyrimidin-6(7H)-one]
8 | 0.5 | 82 | 1.7 | 14.5 | CC1(C)C(=O)Nc2ncnc(N3CCC(c4nc(-c5nnc(C(F)F)o5)ccc4NCCN4CCCC4)CC3)c21 [Compound 30, 4-(4-(6-(5-(Difluoromethyl)-1,3,4-oxadiazol-2-yl)-3-((2-(pyrrolidin-1-yl)ethyl)amino)pyridin-2-yl)piperidin-1-yl)-5,5-dimethyl-5H-pyrrolo[2,3-d]pyrimidin-6(7H)-one]
9 | 0.3 | 86 | 1.6 | 7.2 | CC(C)(C)NCCNc1ccc(-c2noc(C(F)F)n2)nc1C1CCN(c2ncnc3c2C(C)(C)C(=O)N3)CC1 [Compound 41, 4-(4-(3-((2-(Tert-butylamino)ethyl)amino)-6-(5-(difluoromethyl)-1,2,4-oxadiazol-3-yl)pyridin-2-yl)piperidin-1-yl)-5,5-dimethyl-5H-pyrrolo[2,3-d]pyrimidin-6(7H)-one]
10 | 0.4 | 102 | 0.5 | 2.6 | CC1(C)C(=O)Nc2ncnc(N3CCC(c4nc(-c5nc(C(F)(F)F)no5)ccc4NCCN4CCCC4)CC3)c21 [Compound 44, 5,5-Dimethyl-4-(4-(3-((2-(pyrrolidin-1-yl)ethyl)amino)-6-(3-(trifluoromethyl)-1,2,4-oxadiazol-5-yl)pyridin-2-yl)piperidin-1-yl)-5H-pyrrolo[2,3-d]pyrimidin-6(7H)-one]

Row | SMILES | IC50 (S6K1) [nM] | GI50 [1] [nM] | IC50 (Rsk1) [nM] | IC50 (human Akt1) [nM]
11 | CC(C)(C)NCCNc1ccc(-c2nnc(C(F)(F)F)o2)nc1C1CCN(c2ncnc3c2C(C)(C)C(=O)N3)CC1 [Compound 32, 4-(4-(3-((2-(Tert-butylamino)ethyl)amino)-6-(5-(trifluoromethyl)-1,3,4-oxadiazol-2-yl)pyridin-2-yl)piperidin-1-yl)-5,5-dimethyl-5H-pyrrolo[2,3-d]pyrimidin-6(7H)-one] | – | 89 | – | –

From patent US10538528B2, “5H-pyrrolo[2,3-D]pyrimidin-6(7H)-one derivative” (Taiho Pharmaceutical Co., Ltd., priority 2016, dated 2020)
